Reference: patent US20170311603A1 (priority 2014, published 2017)

Columns and labels:
[1] = test system: VvPR1; assay: Induction of plant defense gene VvPR1 in grapevine calli, qRT-PCR (Example 5); type: cell-based, V. vinifera L. cv. Chardonnay; settings: 10 mM in MPM1 medium, 4 days of culture; overexpressed when induction ratio ≧4
[2] = test system: VvEDS1; assay: Induction of plant defense gene VvEDS1 in grapevine calli, qRT-PCR (Example 5); type: cell-based, V. vinifera L. cv. Chardonnay; settings: 10 mM in MPM1 medium, 4 days of culture; overexpressed when induction ratio ≧4

| Compound | expression of VvPR1 gene [1] | expression of VvEDS1 gene [2] |
| --- | --- | --- |
| O=C(O)c1ccccc1O [salicylic acid] | overexpress | overexpress |
| O=C1[O][Bi]([OH])[O]c2ccccc21 [bismuth subsalicylate] | overexpress | overexpress |
